Experiments:
UGT1A1 = target: T1, UGT1A1 (Homo sapiens, UniProt P22309); assay: DDI perpetrator study: dolutegravir probe; type: in vivo; conditions: human, plasma, oral, 50 mg; for AUC: dolutegravir, probe alone (day 1), geometric mean
T1 sequence (P22309 26-533): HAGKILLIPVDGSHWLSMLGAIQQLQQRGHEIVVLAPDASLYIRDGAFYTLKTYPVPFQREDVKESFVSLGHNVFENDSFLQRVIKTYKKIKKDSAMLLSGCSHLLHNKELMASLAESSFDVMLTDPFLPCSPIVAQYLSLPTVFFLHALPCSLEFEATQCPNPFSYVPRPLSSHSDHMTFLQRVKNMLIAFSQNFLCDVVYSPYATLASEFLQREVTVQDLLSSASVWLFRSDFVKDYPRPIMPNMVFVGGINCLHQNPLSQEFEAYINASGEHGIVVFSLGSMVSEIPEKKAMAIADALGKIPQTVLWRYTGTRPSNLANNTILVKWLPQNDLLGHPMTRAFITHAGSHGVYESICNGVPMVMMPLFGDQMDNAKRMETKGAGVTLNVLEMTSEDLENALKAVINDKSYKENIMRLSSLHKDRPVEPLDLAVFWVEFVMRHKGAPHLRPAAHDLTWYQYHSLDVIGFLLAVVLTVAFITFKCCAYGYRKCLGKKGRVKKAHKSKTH

CYP2C8 = target: T2, CYP2C8 (Homo sapiens, UniProt P10632); assay: DDI perpetrator study: repaglinide probe; type: in vivo; conditions: human, plasma, oral, 0.5 mg; for AUC: repaglinide, probe alone (day 1), geometric mean
T2 sequence (P10632 1-490): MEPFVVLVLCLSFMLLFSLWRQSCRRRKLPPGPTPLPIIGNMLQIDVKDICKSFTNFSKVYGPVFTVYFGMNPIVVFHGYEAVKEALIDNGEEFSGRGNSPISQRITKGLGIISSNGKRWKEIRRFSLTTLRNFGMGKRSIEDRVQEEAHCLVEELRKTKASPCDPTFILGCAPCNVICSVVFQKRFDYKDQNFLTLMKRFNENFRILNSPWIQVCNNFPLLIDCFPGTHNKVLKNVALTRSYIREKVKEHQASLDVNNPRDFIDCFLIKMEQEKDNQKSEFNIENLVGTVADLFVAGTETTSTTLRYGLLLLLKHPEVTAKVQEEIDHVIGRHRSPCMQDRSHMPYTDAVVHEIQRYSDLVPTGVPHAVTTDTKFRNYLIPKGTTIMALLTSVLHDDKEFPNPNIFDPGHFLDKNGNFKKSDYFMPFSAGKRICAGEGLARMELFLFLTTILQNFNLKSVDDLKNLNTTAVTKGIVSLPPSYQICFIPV

CYP3A4 = assay: clinical; conditions: human, plasma, oral; for AUC: geometric mean
BCRP = target: T3, BCRP (Homo sapiens, UniProt Q9UNQ0); assay: DDI perpetrator study: rosuvastatin probe; type: in vivo; conditions: human, plasma, oral, 10 mg; for AUC: rosuvastatin, probe alone (day 1), geometric mean
T3 sequence (Q9UNQ0 1-655): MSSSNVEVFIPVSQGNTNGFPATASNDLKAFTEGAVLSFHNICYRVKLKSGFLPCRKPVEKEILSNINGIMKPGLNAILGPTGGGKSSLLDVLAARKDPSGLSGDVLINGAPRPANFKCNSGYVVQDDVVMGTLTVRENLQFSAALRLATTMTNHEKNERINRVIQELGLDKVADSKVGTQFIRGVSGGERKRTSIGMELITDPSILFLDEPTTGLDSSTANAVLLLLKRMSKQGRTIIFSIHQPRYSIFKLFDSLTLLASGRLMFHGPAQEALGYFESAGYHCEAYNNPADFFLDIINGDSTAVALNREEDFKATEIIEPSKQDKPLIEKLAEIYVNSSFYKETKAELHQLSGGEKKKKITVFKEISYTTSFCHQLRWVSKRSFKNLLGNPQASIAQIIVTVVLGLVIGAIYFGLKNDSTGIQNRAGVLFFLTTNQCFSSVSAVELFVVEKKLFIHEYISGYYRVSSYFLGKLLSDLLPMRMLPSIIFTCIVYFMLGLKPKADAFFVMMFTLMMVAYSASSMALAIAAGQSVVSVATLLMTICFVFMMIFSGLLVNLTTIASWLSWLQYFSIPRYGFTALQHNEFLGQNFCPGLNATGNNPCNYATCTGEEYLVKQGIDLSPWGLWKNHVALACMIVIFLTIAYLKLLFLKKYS

SMILES: C[C@@H]1CCO[C@H]2Cn3cc(C(=O)NCc4ccc(F)cc4F)c(=O)c(O)c3C(=O)N12 [Dolutegravir]
- Cmax (UGT1A1): 2590 ng/mL
- AUC (UGT1A1; AUC0‐inf): 46300 ng·h/mL
- AUC (UGT1A1; AUC0‐last): 44600 ng·h/mL

SMILES: CCOc1cc(CC(=O)N[C@@H](CC(C)C)c2ccccc2N2CCCCC2)ccc1C(=O)O [Repaglinide]
- Cmax (CYP2C8): 2.94 ng/mL
- AUC (CYP2C8; AUC0‐inf): 7.27 ng·h/mL
- AUC (CYP2C8; AUC0‐last): 6.68 ng·h/mL

SMILES: Cc1ncc2n1-c1ccc(Cl)cc1C(c1ccccc1F)=NC2 [Midazolam]
- Cmax (CYP3A4; 2.5 mg): 8.42 ng/mL
- AUC (CYP3A4; 2.5 mg, AUC0‐inf, midazolam, probe alone (day 1)): 39.5 ng·h/mL
- AUC (CYP3A4; 2.5 mg, AUC0‐last, midazolam, probe alone (day 1)): 37.5 ng·h/mL
- AUC (CYP3A4; AUC0‐inf, midazolam + miricorilant (day 10)): 34.7 ng·h/mL

SMILES: CC(C)c1nc(N(C)S(C)(=O)=O)nc(-c2ccc(F)cc2)c1/C=C/[C@@H](O)C[C@@H](O)CC(=O)O [Rosuvastatin]
- Cmax (BCRP): 2.35 ng/mL
- AUC (BCRP; AUC0‐inf): 20.7 ng·h/mL
- AUC (BCRP; AUC0‐last): 17.1 ng·h/mL

From paper PMC12709667 (Journal of Clinical Pharmacology, 2025)
